Columns and labels:
Erisiphe graminis [1] = assay: Fungicidal activity versus powdery mildew on wheat plants; type: in vivo, Erisiphe graminis on winter wheat plants, variety Corvus; conditions: propiconazole 0, ethoduomeen C/13 16 ppm a.i.; day 17; mean of 4 replicates
Erisiphe graminis [2] = assay: as above; type: in vivo, Erisiphe graminis on winter wheat plants, variety Corvus; conditions: day 17, mean of 4 replicates
Description: • Test model: Winter wheat plants, variety Corvus, were sprayed with the test solutions till run off. Treated plants were incubated in the glasshouse and dusted with Erisiphe graminis conidia after drying. • Test solutions: • 1) aqueous solutions were prepared by diluting a commercial propiconazole formulation “Tilt® 250 EC” until spray solutions were obtained comprising 8, 16, 20, and 24 ppm of propiconazole. • 2) aqueous solutions were prepared comprising of 40, 80, 160, 320, 640, 1280, and 2560 ppm of N,N′,N′-tris(2-hydroxyethyl)-N-cocoalkyl-1,3-diamino-propane (i.e. ethoduomeen C/13). • 3) to aqueous solutions comprising 8 and 16 ppm of propiconazole an amount of “ethoduomeen C/13” was added yielding test solutions wherein the ratio of propiconazole over “ethoduomeen C/13” is 1/160, 1/80, 1/40, 1/20, 1/10 and 1/5.
The commercial “Tilt® 250 EC” formulation comprises 25% (w/v) of propiconazole dissolved in an aromatic petroleum hydrocarbon liquid mixture.
On day 17 after dusting the wheat plants with Erisiphe graminis the % inhibition of fungal growth was evaluated.

Row | Compound | % Fungicidal activity versus E. graminis (Erisiphe graminis [1]) [%] | % Fungicidal activity versus E. graminis (Erisiphe graminis [2]; propiconazole 0, ethoduomeen C/13 40 ppm a.i.) [%] | % Fungicidal activity versus E. graminis (Erisiphe graminis [2]; propiconazole 0, ethoduomeen C/13 80 ppm a.i.) [%] | % Fungicidal activity versus E. graminis (Erisiphe graminis [2]; propiconazole 0, ethoduomeen C/13 320 ppm a.i.) [%] | % Fungicidal activity versus E. graminis (Erisiphe graminis [2]; propiconazole 0, ethoduomeen C/13 640 ppm a.i.) [%] | % Fungicidal activity versus E. graminis (Erisiphe graminis [2]; propiconazole 0, ethoduomeen C/13 1280 ppm a.i.) [%] | % Fungicidal activity versus E. graminis (Erisiphe graminis [2]; propiconazole 0, ethoduomeen C/13 2560 ppm a.i.) [%] | % Fungicidal activity versus E. graminis (Erisiphe graminis [2]; propiconazole 8 ppm a.i., ethoduomeen C/13 0) [%] | % Fungicidal activity versus E. graminis (Erisiphe graminis [2]; propiconazole 16 ppm a.i., ethoduomeen C/13 0) [%] | % Fungicidal activity versus E. graminis (Erisiphe graminis [2]; propiconazole 20 ppm a.i., ethoduomeen C/13 0) [%] | % Fungicidal activity versus E. graminis (Erisiphe graminis [2]; propiconazole 24 ppm a.i., ethoduomeen C/13 0) [%]
1 | N,N′,N′-tris(2-hydroxyethyl)-N-cocoalkyl-1,3-diamino-propane [ethoduomeen C/13] | 0 | 0 | 0 | 0 | 0 | 0 | 0 | – | – | – | –
2 | CCCC1COC(Cn2cncn2)(c2ccc(Cl)cc2Cl)O1 (centres unmarked) [propiconazole, 1-[[2-(2,4-dichlorophenyl)-4-propyl-1,3-dioxolan-2-yl]methyl]-1H -1,2,4-triazole] | – | – | – | – | – | – | – | 25 | 50 | 50 | 80

Source: patent US7662748B2, “Formulations comprising triazoles and alkoxylated amines” (Janssen Pharmaceutica, N.V., priority 2002, dated 2010)
